{
  "source": "paper PMC11983343",
  "about": "“Synthesis of Thiazole-methylsulfonyl Derivatives, X-ray Study, and Investigation of Their Carbonic Anhydrase Activities: In Vitro and In Silico Potentials” (ACS Omega, 2025)",
  "key": {"hCA I": {"molecular_target": "T1, hCA I (Homo sapiens, UniProt P00915)", "T1 construct": "hCA I and hCA II isoenzymes purified from human erythrocytes under in vitro conditions; from tissue; host or cells: human erythrocytes", "T1 sequence (P00915 whole entry)": "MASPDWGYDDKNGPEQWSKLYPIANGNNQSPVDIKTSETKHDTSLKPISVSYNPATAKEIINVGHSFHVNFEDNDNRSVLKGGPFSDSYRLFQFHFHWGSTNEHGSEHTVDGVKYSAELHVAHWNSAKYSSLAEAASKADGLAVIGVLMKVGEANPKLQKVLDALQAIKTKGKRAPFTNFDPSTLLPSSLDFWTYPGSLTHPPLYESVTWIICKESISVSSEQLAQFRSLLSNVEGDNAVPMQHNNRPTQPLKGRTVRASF", "experiment": "Carbonic anhydrase I inhibition assay (esterase method, p-nitrophenyl acetate, 348 nm)", "format": "biochemical", "settings": "hCA I purified from human erythrocytes", "description": "(§1) The esterase method was used to investigate the effects of the molecule on hCA isoenzymes.[44] This method is based on the activity of hCA for the hydrolysis of p-nitrophenyl acetate as a substrate for the reaction mechanism of p-nitrophenol or p-nitrophenolate. […] Since p-nitrophenyl acetate has very little absorption at this wavelength, it will be used as a blank. The p-nitrophenyl acetate substrate solution used in the experiments will be prepared daily.[45],[46]\n(§2) Then, the cuvette content containing enzymes, unlike the blank cuvette, was prepared according to Table 1 and placed in the spectrophotometer device. […] Then, molecules at different concentrations were added one by one, the absorbances at 0 and 3 min were measured again, and their differences were taken.[45],[46] […] The enzyme activity values obtained were converted to % activity, their graphs were drawn according to the different concentrations of the molecules, and the IC50 value, that is, the concentration of molecules that reduced the enzyme activity by half, was found. The values were interpreted.\n(§3) For the inhibition study, five different inhibitor concentrations of molecules were used at a fixed substrate concentration, and the inhibitor concentration (IC50) values that reduced the enzyme’s activity by half were determined by drawing % activity–[I] graphs."}, "hCA II": {"molecular_target": "T2, hCA II (Homo sapiens, UniProt P00918)", "T2 construct": "hCA I and hCA II isoenzymes purified from human erythrocytes under in vitro conditions; from tissue; host or cells: human erythrocytes", "experiment": "Carbonic anhydrase II inhibition assay (esterase method, p-nitrophenyl acetate, 348 nm)", "format": "biochemical", "settings": "hCA II purified from human erythrocytes", "description": "as §1, §2, §3"}},
  "data": [
    {"smiles": "CC(=NNc1nc(-c2ccc(-c3ccccc3)cc2)cs1)c1ccc(S(C)(=O)=O)cc1", "note": "[2e, 4-([1,1′-Biphenyl]-4-yl)-2-(2-(1-(4-(methylsulfonyl)phenyl)ethylidene)hydrazinyl)thiazole]", "values": [
      {"measurement": "IC50", "setting": "hCA I", "value": 77.9, "unit": "µM"},
      {"measurement": "IC50", "setting": "hCA II", "value": 40.5, "unit": "µM"}
    ]},
    {"smiles": "CC(=NNc1nc(-c2ccc(Cl)cc2Cl)cs1)c1ccc(S(C)(=O)=O)cc1", "note": "[2l, 2-(2-(1-(4-(Methylsulfonyl)phenyl)ethylidene)hydrazinyl)-4-(2,4-dichlorophenyl)thiazole]", "values": [
      {"measurement": "IC50", "setting": "hCA I", "value": 67.9, "unit": "µM"},
      {"measurement": "IC50", "setting": "hCA II", "value": 71.5, "unit": "µM"}
    ]},
    {"smiles": "CC(=NNc1nc(-c2ccc(C#N)cc2)cs1)c1ccc(S(C)(=O)=O)cc1", "note": "[2c, 2-(2-(1-(4-(Methylsulfonyl)phenyl)ethylidene)hydrazinyl)-4-(4-cyanophenyl)thiazole]", "values": [
      {"measurement": "IC50", "setting": "hCA I", "value": 63, "unit": "µM"},
      {"measurement": "IC50", "setting": "hCA II", "value": 39.2, "unit": "µM"}
    ]},
    {"smiles": "CC(=NNc1nc(-c2ccc(F)cc2)cs1)c1ccc(S(C)(=O)=O)cc1", "note": "[2d, 2-(2-(1-(4-(Methylsulfonyl)phenyl)ethylidene)hydrazinyl)-4-(4-fluorophenyl)thiazole]", "values": [
      {"measurement": "IC50", "setting": "hCA I", "value": 103, "unit": "µM"},
      {"measurement": "IC50", "setting": "hCA II", "value": 54.1, "unit": "µM"}
    ]},
    {"smiles": "CC(=NNc1nc(-c2ccc(F)cc2F)cs1)c1ccc(S(C)(=O)=O)cc1", "note": "[2i, 2-(2-(1-(4-(Methylsulfonyl)phenyl)ethylidene)hydrazinyl)-4-(2,4-difluorophenyl)thiazole]", "values": [
      {"measurement": "IC50", "setting": "hCA I", "value": 52.9, "unit": "µM"},
      {"measurement": "IC50", "setting": "hCA II", "value": 86.6, "unit": "µM"}
    ]},
    {"smiles": "CC(=NNc1nc(-c2ccc(Br)cc2)cs1)c1ccc(S(C)(=O)=O)cc1", "note": "[2f, 2-(2-(1-(4-(Methylsulfonyl)phenyl)ethylidene)hydrazinyl)-4-(4-bromophenyl)thiazole]", "values": [
      {"measurement": "IC50", "setting": "hCA I", "value": 133, "unit": "µM"},
      {"measurement": "IC50", "setting": "hCA II", "value": 51.3, "unit": "µM"}
    ]},
    {"smiles": "CC(=NNc1nc(-c2ccc([N+](=O)[O-])cc2)cs1)c1ccc(S(C)(=O)=O)cc1", "note": "[2a, 2-(2-(1-(4-(Methylsulfonyl)phenyl)ethylidene)hydrazinyl)-4-(4-nitrophenyl)thiazole]", "values": [
      {"measurement": "IC50", "setting": "hCA I", "value": 39.4, "unit": "µM"},
      {"measurement": "IC50", "setting": "hCA II", "value": 70, "unit": "µM"}
    ]},
    {"smiles": "CC(=NNc1nc(-c2ccc(Cl)c(Cl)c2)cs1)c1ccc(S(C)(=O)=O)cc1", "note": "[2h, 2-(2-(1-(4-(Methylsulfonyl)phenyl)ethylidene)hydrazinyl)-4-(3,4-dichlorophenyl)thiazole]", "values": [
      {"measurement": "IC50", "setting": "hCA I", "value": 60.8, "unit": "µM"},
      {"measurement": "IC50", "setting": "hCA II", "value": 38.5, "unit": "µM"}
    ]},
    {"smiles": "CC(=NNc1nc(-c2cccc([N+](=O)[O-])c2)cs1)c1ccc(S(C)(=O)=O)cc1", "note": "[2j, 2-(2-(1-(4-(Methylsulfonyl)phenyl)ethylidene)hydrazinyl)-4-(3-nitrophenyl)thiazole]", "values": [
      {"measurement": "IC50", "setting": "hCA I", "value": 80.6, "unit": "µM"},
      {"measurement": "IC50", "setting": "hCA II", "value": 64.8, "unit": "µM"}
    ]},
    {"smiles": "COc1ccc(-c2csc(NN=C(C)c3ccc(S(C)(=O)=O)cc3)n2)cc1", "note": "[2b, 2-(2-(1-(4-(Methylsulfonyl)phenyl)ethylidene)hydrazinyl)-4-(4-methoxyphenyl)thiazole]", "values": [
      {"measurement": "IC50", "setting": "hCA I", "value": 59.8, "unit": "µM"},
      {"measurement": "IC50", "setting": "hCA II", "value": 76.2, "unit": "µM"}
    ]},
    {"smiles": "CC(=NNc1nc(-c2ccc(C)cc2)cs1)c1ccc(S(C)(=O)=O)cc1", "note": "[2g, 2-(2-(1-(4-(Methylsulfonyl)phenyl)ethylidene)hydrazinyl)-4-(4-methylphenyl)thiazole]", "values": [
      {"measurement": "IC50", "setting": "hCA I", "value": 198, "unit": "µM"},
      {"measurement": "IC50", "setting": "hCA II", "value": 78.8, "unit": "µM"}
    ]},
    {"smiles": "CC(=NNc1nc(-c2ccccc2)cs1)c1ccc(S(C)(=O)=O)cc1", "note": "[2m, 2-(2-(1-(4-(Methylsulfonyl)phenyl)ethylidene)hydrazinyl)-4-phenylthiazole]", "values": [
      {"measurement": "IC50", "setting": "hCA I", "value": 44.4, "unit": "µM"},
      {"measurement": "IC50", "setting": "hCA II", "value": 53.3, "unit": "µM"}
    ]},
    {"smiles": "CC(=NNc1nc(-c2ccc(Cl)cc2)cs1)c1ccc(S(C)(=O)=O)cc1", "note": "[2k, 2-(2-(1-(4-(Methylsulfonyl)phenyl)ethylidene)hydrazinyl)-4-(4-chlorophenyl) thiazole]", "values": [
      {"measurement": "IC50", "setting": "hCA I", "value": 58.7, "unit": "µM"},
      {"measurement": "IC50", "setting": "hCA II", "value": 86.6, "unit": "µM"}
    ]}
  ]
}
